Experimental data reported in patent US9833426B2, “Agent for preventing deterioration in vascular endothelial function or improving vascular endothelial function” (KYOWA HAKKO BIO CO., LTD., priority 2012, dated 2017).

Key:
[1] = system: normal human umbilical vein endothelial cells (HUVEC); experiment: Nitrite (NO2) concentration in HUVEC culture supernatant by HPLC (NO production); format: cell-based; settings: 48-hour culture
Procedure: A normal human umbilical vein endothelial cells (HUVEC) line available from Clonetics (SanDiego, Calif., USA) was used with EGM-2 Bullet Kit medium containing 2% FBS (Takara Bio Inc.). The cells were cultured at 37° C. in a 5% CO2 incubator, and used for experiments after 4 to 6 passages. Citrulline and serine, which were manufactured by Kyowa Hakko Bio, were used.
A cell suspension (0.45 mL) with the adjusted initial cell density to 1×10^5 cells/mL was inoculated in a 24-well plate (IWAKI). After 24-hour culture, the medium was replaced with a medium containing L-citrulline (final concentration 0.3 mM: low-dose citrulline group, or final concentration 3 mM: high-dose citrulline group), L-serine (final concentration 0.3 mM: serine group), or a mixture thereof (citrulline final concentration 0.3 mM and serine final concentration 0.3 mM: low-dose citrulline+serine group, or citrulline final concentration 3 mM and serine final concentration 0.3 mM: high-dose citrulline+serine group). In a control group, a medium to which only a solvent (PBS) was added was used. After 48-hour culture, the culture broth ([…]) was centrifuged at 12,000 rpm for 10 minutes, and the concentration of nitrite (NO2), which is a stable NO metabolite, in the culture supernatant was determined by HPLC (ENO-20, EICOM).

[2] = system: mice in which chronic rheumatoid arthritis was induced; settings: oral administration, mice with induced chronic rheumatoid arthritis; cited from earlier work
[3] = system: normal rats and spontaneously hypertensive rats (SHR); settings: intravenous acute administration, transient; cited from earlier work

Row | SMILES | Effect on NO production alone ([1]; citrulline 0.3 mM alone (low-dose citrulline group)) | Effect on NO production alone ([1]; citrulline 3 mM alone (high-dose citrulline group)) | Arthritis score [2] | Average blood pressure [3] | Peripheral vascular resistance [3]
1 | NC(=O)NCCC[C@H](N)C(=O)O [citrulline, L-citrulline] | does not affect NO production alone | NO production was enhanced | – | – | –
2 | N[C@@H](CO)C(=O)O [serine, L-serine] | – | – | ameliorating the arthritis score | decreased | decreased in a transient manner
